Reference: ChEMBL document CHEMBL1201862, “PubChem BioAssay data set” (2004)
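Step 1: Grow cells in 96-well plates. Step 2: Expose to compound for 48 hours at 5 concentrations. Step 3: Interpolate endpoints linearly; if unreached, use highest concentration. Here, GI50 denotes the concentration required for 50% inhibition of growth.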 The source made the active and inactive calls. No stated cut-off is given here; in the data, active = GI50 up to about 1.1 µM and inactive = higher.

Tests used:
Assay in all cases: DTP human tumour cell line panel, 48 h
SF-539 = system: SF-539
LOX IMVI = system: LOX IMVI
HCT-15 = system: HCT-15
MDA-N = system: MDA-N
SF-268 = system: SF-268
PC-3 = system: PC-3
SW-620 = system: SW-620
OVCAR-4 = system: OVCAR-4
DU-145 = system: DU-145
SN12C = system: SN12C
UACC-257 = system: UACC-257
HOP-92 = system: HOP-92
RPMI-8226 = system: RPMI-8226
HL-60 = system: HL-60
OVCAR-8 = system: OVCAR-8
MOLT-4 = system: MOLT-4
T47D = system: T47D
TK-10 = system: TK-10
A549 = system: A549
BT-549 = system: BT-549

Structure (SMILES)	GI50 (SF-539)	GI50 (LOX IMVI)	GI50 (HCT-15)	GI50 (MDA-N)	GI50 (SF-268)	GI50 (PC-3)	GI50 (SW-620)	GI50 (OVCAR-4)	GI50 (DU-145)	GI50 (SN12C)	GI50 (UACC-257)	GI50 (HOP-92)	GI50 (RPMI-8226)	GI50 (HL-60)	GI50 (OVCAR-8)	GI50 (MOLT-4)	GI50 (T47D)	GI50 (TK-10)	GI50 (A549)	GI50 (BT-549)
COc1cc(C)c(/C=C2/N=C(c3ccccc3)OC2=O)c([N+](=O)[O-])c1OC	> 100 µM (inactive)	> 100 µM (inactive)	> 100 µM	> 100 µM (inactive)	> 100 µM (inactive)	> 100 µM (inactive)	> 100 µM (inactive)	> 100 µM (inactive)	> 100 µM (inactive)	> 100 µM (inactive)	> 100 µM (inactive)	37.4 µM (inactive)	> 100 µM (inactive)	> 100 µM (inactive)	> 100 µM (inactive)	> 100 µM (inactive)	> 100 µM (inactive)	> 100 µM (inactive)	> 100 µM (inactive)	> 100 µM (inactive)
COc1ccc(CCN2CCN(CCc3ccc(OC)cc3)CC2)cc1	> 100 µM (inactive)	> 100 µM (inactive)	> 100 µM	> 100 µM (inactive)	> 100 µM (inactive)	> 100 µM (inactive)	> 100 µM (inactive)	> 100 µM (inactive)	> 100 µM (inactive)	> 100 µM (inactive)	> 100 µM (inactive)	> 100 µM (inactive)	> 100 µM (inactive)	> 100 µM (inactive)	> 100 µM (inactive)	> 100 µM (inactive)	> 100 µM (inactive)	> 100 µM (inactive)	> 100 µM (inactive)	> 100 µM (inactive)
COc1cc(C2C(Cl)C(=O)N2NC(=O)c2ccc(NC(C)=O)cc2OC)ccc1O (stereo not drawn)	19.1 µM (inactive)	7.28 µM (inactive)	19.5 µM	20 µM (inactive)	21.8 µM (inactive)	19.4 µM (inactive)	24.7 µM (inactive)	39.1 µM (inactive)	21.3 µM (inactive)	17.9 µM (inactive)	–	16 µM (inactive)	1.94 µM (inactive)	20.3 µM (inactive)	22.2 µM (inactive)	3.96 µM (inactive)	20.9 µM (inactive)	–	32.1 µM (inactive)	17.3 µM (inactive)
Cc1ccc(S(=O)(=O)N2CCSCCSCCSCCSCC2)cc1	26.9 µM (inactive)	59.6 µM (inactive)	> 100 µM	> 89.7 µM (inactive)	34.5 µM (inactive)	55 µM (inactive)	> 100 µM (inactive)	27.8 µM (inactive)	> 100 µM (inactive)	> 58.5 µM (inactive)	> 91.2 µM (inactive)	12.3 µM (inactive)	77.1 µM (inactive)	99.8 µM (inactive)	24.3 µM (inactive)	> 82.2 µM (inactive)	36.3 µM (inactive)	44.6 µM (inactive)	61.1 µM (inactive)	25.4 µM (inactive)
O=C1COc2ccc([N+](=O)[O-])cc2C(=O)C1	> 10 µM (inactive)	> 10 µM (inactive)	> 10 µM	> 10 µM (inactive)	> 10 µM (inactive)	> 10 µM (inactive)	> 10 µM (inactive)	> 10 µM (inactive)	> 10 µM (inactive)	> 10 µM (inactive)	> 10 µM (inactive)	0.001 µM (active)	> 10 µM (inactive)	> 10 µM (inactive)	> 10 µM (inactive)	> 10 µM (inactive)	> 10 µM (inactive)	> 10 µM (inactive)	> 10 µM (inactive)	> 10 µM (inactive)
COc1ccc2c(c1)[C@@H]1c3cc(OC)c(OC)cc3CCN1CCC2	> 100 µM (inactive)	98.4 µM (inactive)	79.4 µM	> 100 µM (inactive)	> 100 µM (inactive)	73.5 µM (inactive)	> 100 µM (inactive)	35.3 µM (inactive)	> 100 µM (inactive)	> 100 µM (inactive)	19.7 µM (inactive)	9.18 µM (inactive)	54.8 µM (inactive)	> 100 µM (inactive)	> 100 µM (inactive)	33.3 µM (inactive)	31.6 µM (inactive)	> 100 µM (inactive)	> 100 µM (inactive)	68.9 µM (inactive)
N[C@H](C(=O)O)[C@H]1ON=C(Cl)[C@@H]1O	1.28 µM (inactive)	8.71 µM (inactive)	1.21 µM	2.95 µM (inactive)	1.5 µM (inactive)	7.03 µM (inactive)	2.16 µM (inactive)	29.3 µM (inactive)	27.4 µM (inactive)	4.63 µM (inactive)	14.7 µM (inactive)	27.4 µM (inactive)	2.43 µM (inactive)	3.46 µM (inactive)	2.95 µM (inactive)	1.38 µM (inactive)	33.6 µM (inactive)	> 28.5 µM (inactive)	1.56 µM (inactive)	3.97 µM (inactive)
COc1cc2c(cc1OC)C(CCN)=NCC2	6.75 µM (inactive)	18.8 µM (inactive)	19.6 µM	15.8 µM (inactive)	19.5 µM (inactive)	16 µM (inactive)	5 µM (inactive)	21.2 µM (inactive)	17.9 µM (inactive)	19 µM (inactive)	17.9 µM (inactive)	6.82 µM (inactive)	5.33 µM (inactive)	0.839 µM (active)	18.2 µM (inactive)	17.1 µM (inactive)	8.32 µM (inactive)	10.2 µM (inactive)	31.6 µM (inactive)	19.1 µM (inactive)
CCOc1ccccc1/N=N/C1C(=O)N(C(=O)CC(=O)Nc2ccccc2OC)N=C1C (stereo not drawn)	53.2 µM (inactive)	> 100 µM (inactive)	15.7 µM	> 100 µM (inactive)	22.4 µM (inactive)	> 100 µM (inactive)	> 100 µM (inactive)	> 100 µM (inactive)	71.3 µM (inactive)	> 100 µM (inactive)	–	20.3 µM (inactive)	45.2 µM (inactive)	> 100 µM (inactive)	37.5 µM (inactive)	> 100 µM (inactive)	37 µM (inactive)	> 100 µM (inactive)	> 100 µM (inactive)	> 100 µM (inactive)
N#C[BH2-][n+]1ccc(C(=O)NNCc2ccc(F)cc2)cc1	> 100 µM (inactive)	> 100 µM (inactive)	> 100 µM	> 100 µM (inactive)	> 100 µM (inactive)	> 100 µM (inactive)	> 100 µM (inactive)	64.1 µM (inactive)	> 100 µM (inactive)	> 100 µM (inactive)	> 100 µM (inactive)	> 100 µM (inactive)	> 100 µM (inactive)	> 100 µM (inactive)	> 100 µM (inactive)	> 100 µM (inactive)	> 100 µM (inactive)	> 100 µM (inactive)	> 100 µM (inactive)	> 100 µM (inactive)
COc1ccc(OC)c(C2Cc3cnc4nc(N)nc(N)c4c3C2)c1 (stereo not drawn)	13.7 µM (inactive)	19.8 µM (inactive)	29.2 µM	25.8 µM (inactive)	34.2 µM (inactive)	22.4 µM (inactive)	33.2 µM (inactive)	20.8 µM (inactive)	29.2 µM (inactive)	21.7 µM (inactive)	18.3 µM (inactive)	24.3 µM (inactive)	29.6 µM (inactive)	20.4 µM (inactive)	26.2 µM (inactive)	24.5 µM (inactive)	25 µM (inactive)	26.2 µM (inactive)	41.5 µM (inactive)	22.8 µM (inactive)
COc1cccc2cc(C(C)=O)c(=O)oc12	> 100 µM (inactive)	> 100 µM (inactive)	–	> 100 µM (inactive)	> 100 µM (inactive)	> 100 µM (inactive)	> 100 µM (inactive)	> 100 µM (inactive)	> 100 µM (inactive)	> 100 µM (inactive)	> 100 µM (inactive)	> 100 µM (inactive)	> 100 µM (inactive)	> 100 µM (inactive)	> 100 µM (inactive)	> 100 µM (inactive)	12.6 µM (inactive)	> 100 µM (inactive)	> 100 µM (inactive)	> 100 µM (inactive)
C[C@H]1CCC2C(OC(=O)[C@@H]2CN(C)C)[C@]2(C)C(=O)C=CC12O (stereo partly drawn)	3.64 µM (inactive)	4.59 µM (inactive)	–	3.48 µM (inactive)	6.79 µM (inactive)	14.2 µM (inactive)	3.24 µM (inactive)	5.62 µM (inactive)	10.8 µM (inactive)	4.09 µM (inactive)	4.86 µM (inactive)	2.79 µM (inactive)	2.67 µM (inactive)	1.65 µM (inactive)	1.57 µM (inactive)	2.82 µM (inactive)	3.2 µM (inactive)	6.68 µM (inactive)	24.8 µM (inactive)	5.37 µM (inactive)
O=c1[nH]nc(Nc2ccc(Cl)cc2)c2nnn(C3CCCCC3)c12	> 100 µM (inactive)	16.4 µM (inactive)	72.8 µM	> 100 µM (inactive)	36.6 µM (inactive)	> 100 µM (inactive)	62.4 µM (inactive)	17 µM (inactive)	> 100 µM (inactive)	> 100 µM (inactive)	> 100 µM (inactive)	22.4 µM (inactive)	50.7 µM (inactive)	86.3 µM (inactive)	14.1 µM (inactive)	–	> 100 µM (inactive)	53 µM (inactive)	> 100 µM (inactive)	> 100 µM (inactive)
CCOC(=O)/C(C(N)=O)=C(/O)c1cnccn1	> 100 µM (inactive)	> 100 µM (inactive)	> 100 µM	> 100 µM (inactive)	> 100 µM (inactive)	> 100 µM (inactive)	> 100 µM (inactive)	> 100 µM (inactive)	> 100 µM (inactive)	> 100 µM (inactive)	> 100 µM (inactive)	> 100 µM (inactive)	> 100 µM (inactive)	> 100 µM (inactive)	> 100 µM (inactive)	> 100 µM (inactive)	> 100 µM (inactive)	–	> 100 µM (inactive)	> 100 µM (inactive)
